Measured values published in US9233095B2, “Small molecule RNase inhibitors and methods of use” (University of Rochester, priority 2011, dated 2016).
Converted amounts (≈) assume the structure as drawn. “And” between values parts separate entries of the source, which are not always exact repeats. Equal entries are not always repeated. Where two headings read alike, the source gives them in different places.

Columns and labels:
[1] = test system: HepG2 human hepatocytes; experiment: MTT cytotoxicity assay; type: cell-based; conditions: for HepG2 cell toxicity: 24 hr exposure, any concentration tested (25, 50 μg/ml); for HepG2 cytotoxicity: 48 hr exposure
Procedure: It was then assessed whether RnpA-inhibitory agent concentrations corresponding to the effective bacterial MIC values (10-50 μg/ml) elicited human cell cytotoxicity. HepG2 human hepatocytes (10^5 cells) were seeded in individual wells of a microtitre plate and incubated for 16 hr at 37° C. with 5% carbon dioxide in Dulbecco's Modified Eagle Media supplemented with 10% fetal bovine serum. Cells were then challenged with Mitomycin C (5 μg/ml; positive control) or 0, 25, or 50 μg/ml RNPA1000 for either 24 or 48 hrs. Cell viability was measured spectrophotometrically (570 nm) following the addition and subsequent reduction of tetrazolium salt (MTT) within metabolically active cells, as per the manufacturer's recommendations (American Type Culture Collection; Manassas, Va.).

[2] = test system: S. aureus strain Smith; experiment: acute lethal model of infection; type: in vivo, CD-1 mice; conditions: RNPA1000 128 mg/kg s.c., over the course of study
[3] = test system: E. faecium (VRE); experiment: CLSI broth microdilution MIC; type: cell-based, Enterococcus faecium; conditions: for MIC: Enterococcus faecium
Description: (§1) In some examples, compounds can be further assayed using the Mueller Hinton (MH) broth antibacterial assay as specified by the Clinical and Laboratory Standards Institute MIC broth microdilution protocol (see Methods for Dilution Antimicrobial Susceptibility Tests for Bacteria That Grow Aerobically; Approved Standard, In The Clinical and Laboratory Standards Institute (CLSI, formerly NCCLS), 7th ed., January 2006, 26 (2), M7-A7; see also Performance Standards for Antimicrobial Susceptibility Testing; Eighteenth Informational Supplement, In The Clinical and Laboratory Standards Institute (CLSI, formerly NCCLS), January 2008, 28 (1), M100-S18).
(§2) With the exception of RN4220-derivatives, in vitro activities of RNPA1000 against bacteria were determined by the broth microdilution method according to the Clinical and Laboratory Standards Institute (CLSI) guidelines using cation adjusted Mueller-Hinton broth or MH broth supplemented with 5% lysed horse blood (for testing Streptotococcus spp.). Microtiter plates containing serial dilutions of RNPA1000 (0, 4, 8, 16, 32, 64, and 128 μg/ml) were inoculated with 10^5 colony forming units (CFU)/ml and incubated for 18 hr at 37° C. […] The MIC value for each S. aureus strain was determined to be the median score of replicate measurements (n=5). Wells containing concentrations of RNPA1000≧MIC were plated for minimal bactericidal measurement. Where possible, experiments with VRSA strains were performed in a laminar flow hood to minimize potential for equipment contamination. For RN4220 cells containing plasmid vector (pCN51), RnpA overproducing plasmid (pRNPA-S) or RnpA underproducing plasmid (pRNPA-A.S.) in vitro antimicrobial activity of RNPA1000 was performed by the microdilution method as described above, except that cells were grown in Tryptic Soy Broth medium supplemented with 2.5 μM CdCl2 and 0, 1, 2, 4, 8, 16, 32, 64, or 128 μg/ml RNPA1000. Time-kill assays were also performed to monitor the antimicrobial properties of RNPA1000 for S. aureus strain UAMS-1 in the absence and presence of 0.25, 0.5, 2, and 4 times the strain's MIC for oxacillin (1 μg/ml), rifampicin (0.5 μg/ml), vancomycin (2 μg/ml), or daptomycin (1 μg/ml). The indicated amount of RNPA1000 and/or commercial antibiotic were added to mid-exponential phase (2×10^8 cfu/ml) S. aureus strain UAMS-1 cells and incubated at 37° C. Aliquots were removed at 0, 2, 4, 8, and 24 hr post-antimicrobial challenge, serial diluted, and plated to enumerate resulting cfu/ml. All time-kill assays were repeated at least 3 times.

[4] = test system: E. faecium; experiment: CLSI broth microdilution MIC; type: cell-based, Enterococcus faecium; conditions: for MIC: Enterococcus faecium
Description: as §1, §2

[5] = test system: S. aureus strain Smith; experiment: acute lethal model of infection; type: in vivo, CD-1 mice; conditions: for % Survival: 5 days, one value per experiment
Procedure: Because RNPA1000 was not toxic during short- and only mildly toxic during extended-HepG2 exposure, it could serve as an appropriate tool to assess whether RnpA-inhibitory molecules are efficacious in a systemic mouse infection model. […] RNPA1000 was solubilized in 1:1 mixture of DMSO and PEG400; Vancomycin was prepared in water. Animals (5/dose group) were administered 16, 64, and 256 mg/kg or 0.25, 1, 4, and 16 mg/kg of RNPA1000 or Vancomycin, respectively, at 30 min post infection by subcutaneous injection (0.2 ml). The percent surviving animals receiving no treatment, a single dose of Vancomycin, or RnpA-inhibitor was recorded daily over the course of the study (5 days).
Percent survival refers to a consensus of surviving animals following 5 days post-intraperitoneal S. aureus injection and RNPA1000 administration. The number in parentheses indicates the number of times the experiment was repeated. Each member of non-treated control mice expired within 24 hr bacterial inoculation (0 mg/kg). Vancomycin served as a positive control.

[6] = biological target: T1, RNase I (Escherichia coli, UniProt P21338); experiment: ribonuclease specificity test; type: biochemical; conditions: any concentration tested (0-750 μM)
T1 construct: purchased
T1 sequence (P21338 24-268): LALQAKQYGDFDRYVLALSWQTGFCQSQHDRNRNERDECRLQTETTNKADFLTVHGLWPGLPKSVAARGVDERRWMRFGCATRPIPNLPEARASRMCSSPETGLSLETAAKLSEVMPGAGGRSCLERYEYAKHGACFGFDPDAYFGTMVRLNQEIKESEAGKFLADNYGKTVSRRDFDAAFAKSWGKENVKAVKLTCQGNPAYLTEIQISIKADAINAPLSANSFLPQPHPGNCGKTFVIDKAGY
Description: (§3) In total, fourteen molecules inhibited the enzyme's RNA turnover activity by ≧50%. A gel-based secondary assay confirmed that five of these molecules were bona-fide inhibitors of RnpA-mediated RNA degradation (FIG. 3B).

[7] = biological target: T2, S. aureus RNase J1 (Staphylococcus aureus, UniProt Q2FZG9); experiment: ribonuclease specificity test; type: biochemical; conditions: any concentration tested (0-750 μM)
T2 construct: hexahistidine-tag (N); made in house; host or cells: E. coli BL21 (DE3)
Description: as §3

[8] = biological target: T3, E. coli RNase HI (Escherichia coli, UniProt P0A7Y4); experiment: ribonuclease specificity test; type: biochemical; conditions: any concentration tested (0-750 μM)
T3 construct: purchased
T3 sequence (P0A7Y4 whole entry): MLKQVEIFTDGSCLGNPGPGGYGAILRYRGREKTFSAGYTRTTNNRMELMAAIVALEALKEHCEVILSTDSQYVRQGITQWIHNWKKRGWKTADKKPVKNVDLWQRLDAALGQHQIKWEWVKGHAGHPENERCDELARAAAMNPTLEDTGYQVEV
Description: as §3

[9] = biological target: T4, RNase A (Bos taurus, UniProt P61823); experiment: ribonuclease specificity test; type: biochemical; conditions: any concentration tested (0-750 μM)
T4 construct: purchased
T4 sequence (P61823 27-150): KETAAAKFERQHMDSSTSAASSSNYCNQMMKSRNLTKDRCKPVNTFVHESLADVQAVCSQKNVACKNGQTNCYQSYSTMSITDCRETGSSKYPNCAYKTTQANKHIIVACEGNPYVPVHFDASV
Description: as §3

[10] = biological target: E. coli RNase III (Escherichia coli, UniProt P0A7Y0); experiment: ribonuclease specificity test; type: biochemical; conditions: data not shown
E. coli RNase III, sequence (P0A7Y0 whole entry): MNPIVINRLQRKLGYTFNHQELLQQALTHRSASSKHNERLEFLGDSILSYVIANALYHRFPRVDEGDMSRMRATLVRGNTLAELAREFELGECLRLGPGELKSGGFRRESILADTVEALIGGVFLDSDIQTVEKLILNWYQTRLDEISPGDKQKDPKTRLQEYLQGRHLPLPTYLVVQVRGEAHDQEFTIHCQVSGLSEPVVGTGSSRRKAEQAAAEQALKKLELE
Description: as §3

`Cc1cc(/C=C(/C#N)C(=O)Nc2cccc(Br)c2)c(C)n1-c1ccc(C(=O)O)cc1` [RNPA1000] was tested. Which HepG2 cell toxicity [1] did it give?
Its HepG2 cell toxicity is “not toxic”.

What about the HepG2 cell toxicity ([1]; listed as RNP1000) of the same compound?
Its HepG2 cell toxicity is “did not cause human HepG2 cell toxicity”.

What about the HepG2 cytotoxicity ([1]; 25 μg/ml) of the same compound?
Its HepG2 cytotoxicity is “mildly toxic”.

And the HepG2 cytotoxicity ([1]; 25 μg/ml, listed as RNP1000)?
The HepG2 cytotoxicity was “mild cytotoxicity”.

And the HepG2 cytotoxicity ([1]; higher concentrations than 25 μg/ml)?
Its HepG2 cytotoxicity is “increased toxicity”.

And the survival [2]?
The survival was 30%.

What about the “antimicrobial activity in words” value [3] of the same compound?
The value was “mild activity”.

What about the MIC ([3]; E. faecium (VRE) Isolate 1) of the same compound?
Its MIC is 64 µg/mL (≈ 138 µM).

What about the MIC ([3]; E. faecium (VRE) Isolate 2) of the same compound?
Its MIC is 64 µg/mL (≈ 138 µM).

What about the MIC ([3]; E. faecium (VRE) Isolate 3) of the same compound?
Its MIC is 32 µg/mL (≈ 68.9 µM).

And the MIC ([3]; E. faecium (VRE) Isolate 4)?
The MIC was 64 µg/mL (≈ 138 µM).

And the MIC ([3]; E. faecium (VRE) Isolate 5)?
The MIC was 32 µg/mL (≈ 68.9 µM).

And the “antimicrobial activity in words” value [4]?
The value was “mild activity”.

And the MIC ([4]; E. faecium Isolate 1, read-out: MIC)?
The MIC was 64 µg/mL (≈ 138 µM).

And the MIC ([4]; E. faecium Isolate 2, read-out: MIC)?
The MIC was 64 µg/mL (≈ 138 µM).

What about the MIC ([4]; E. faecium Isolate 3, read-out: MIC) of the same compound?
Its MIC is 64 µg/mL (≈ 138 µM).

What about the MIC ([4]; E. faecium Isolate 4, read-out: MIC) of the same compound?
Its MIC is 64 µg/mL (≈ 138 µM).

What about the MIC ([4]; E. faecium Isolate 5 + reserpine (efflux pump inhibitor)) of the same compound?
Its MIC is 32 µg/mL.

And the MIC ([4]; E. faecium Isolate 5, read-out: MIC)?
The MIC was 64 µg/mL (≈ 138 µM).

And the “% Survival” value ([5]; RNPA1000 16 mg/kg s.c. 30 min post infection)?
Its value is 20; 20(2) %.

What about the “% Survival” value ([5]; RNPA1000 64 mg/kg s.c. 30 min post infection, 64 mg/kg) of the same compound?
The value was 40%.

What about the “% Survival” value ([5]; RNPA1000 256 mg/kg s.c. 30 min post infection, 256 mg/kg) of the same compound?
Its value is 60% and 40%.

And the ED50 ([5]; Staphylococcus aureus, in Mus musculus, sc, single dose, read-out: median effective dose (ED50))?
The ED50 was 64 to 256 mg/kg.

And the “effect on RNase I activity” value [6]?
Its value is “did not affect the activity”.

What about the “effect on S. aureus RNase J1 activity” value [7] of the same compound?
The value was “did not affect the activity”.

What about the “effect on E. coli RNase HI activity” value [8] of the same compound?
Its value is “did not affect the activity”.

And the “effect on RNase A activity” value [9]?
The value was “did not affect the activity”.

And the IC50 [10]?
The IC50 was 500 to 750 µM.
